“Also recorded” adds a separate entry of the source.
Tested on: F. hepatica newly excysted juveniles (NEJs), Italian strain
Test: Ex vivo screen against newly excysted juveniles (NEJs), phenotype and motility scoring
Assay type: cell-based, Fasciola hepatica
Settings: 10 µM; for Average motility of 25 NEJs with 95% CI, 24 hours / Average motility of 25 NEJs with 95% CI, 48 hours / Average motility of 25 NEJs with 95% CI, 72 hours: motility score 1 good/normal to 5 no movement; for Average phenotype of 25 NEJs with 95% CI, 24 hours / Average phenotype of 25 NEJs with 95% CI, 48 hours / Average phenotype of 25 NEJs with 95% CI, 72 hours: ultrastructure score 1 normal to 6 dead or dissolved; for Activity against NEJs (first screen), in words: 72 h co-culture
Experimental: […] The NEJs were excysted from metacercariae and assayed at 10 μM (in 0.1% DMSO) final concentration alongside negative (0.1% DMSO) and positive (10 μM TCBZ, in 0.1% DMSO) controls as previously described. The MC and IVL compound series were screened separately.
The motility (1—good/normal; 2—moderate; 3—low; 4—very little; 5—no movement) and phenotypic (ultrastructural changes) scores were noted according to a previously described scoring matrix (Figure S1 and Table S2).

| SMILES | Average motility of 25 NEJs with 95% CI, 24 hours | Average phenotype of 25 NEJs with 95% CI, 24 hours | Average motility of 25 NEJs with 95% CI, 48 hours | Average phenotype of 25 NEJs with 95% CI, 48 hours | Average motility of 25 NEJs with 95% CI, 72 hours | Average phenotype of 25 NEJs with 95% CI, 72 hours | Activity against NEJs (first screen), in words |
| --- | --- | --- | --- | --- | --- | --- | --- |
| CC1(C)CC[C@]2(N=C=O)CC[C@]3(C)C(=CCC4[C@@]5(C)CCC6OC(C)(C)OC[C@@]6(C)C5CC[C@]43C)C2C1 (stereo partly drawn) [MC015, (4aR,6aR,6bS,8aS,14bR)-8a-Isocyanato-2,2,4a,6a,6b,11,11,14b-octamethyl-4a,4b,5,6,6a,6b,7,8,8a,9, 10,11,12,12a,14,14a,14b,15,16,16a-eicosahydro-4H-piceno[3,4-d][1,3]dioxine] | 2.56 (2;3) | 2.24 (1.6;2.8) | 3.08 (2.4;3.6) | 2.84 (2;3.5) | 3.12 (2.4;3.7) | 3.56 (2.7;4.3) | None of the three passed the first screen |
| CC1(C)CC[C@]2(NC(=O)NCc3ccccc3)CC[C@]3(C)C(=CCC4[C@@]5(C)CCC6OC(C)(C)OC[C@@]6(C)C5CC[C@]43C)C2C1 (stereo partly drawn) [MC017, 1-Benzyl-3-((4aR,6aR,6bS,8aS,14bR)-2,2,4a,6a,6b,11,11,14b-octamethyl-4a,5,6,6a,6b,7,8,9,10,11,12,12a,14,14a,14b,15,16,16a-octadecahydro-4H-piceno[3,4-d][1,3]dioxin-8a(4bH)-yl)urea] | 4.12 (3.7;4.5) | 3.28 (2.5;4) | 4.0 (3.5; 4.4) | 4.04 (3.3;4.6) | 3.92 (3.3; 4.4) | 4.12 (3.4;4.7) |  |
| CCCCOC(=O)N[C@]12CCC(C)(C)CC1C1=CCC3[C@@]4(C)CCC5OC(C)(C)OC[C@@]5(C)C4CC[C@@]3(C)[C@]1(C)CC2 (stereo partly drawn) [MC019, Butyl ((4aR,6aR,6bS,8aS,14bR)-2,2,4a,6a,6b,11,11,14b-octamethyl-4a,5,6,6a,6b,7,8,9,10, 11,12,12a,14, 14a,14b,15,16,16a-octadecahydro-4H-piceno[3,4-d][1,3]dioxin-8a(4bH)-yl)carbamate] | 2.24 (1.7;2.7) | 2.40 (1.8;2.9) | 4.00 (3.7;4.2) | 3.20 (2.6;3.7) | 4.36 (3.9;4.7) | 3.40 (2.7;4) | inactive against NEJs |
| CCCNC(=O)N[C@]12CCC(C)(C)CC1C1=CCC3[C@@]4(C)CCC5OC(C)(C)OC[C@@]5(C)C4CC[C@@]3(C)[C@]1(C)CC2 (stereo partly drawn) [MC022, 1-((4aR,6aR,6bS,8aS,14bR)-2,2,4a,6a,6b,11,11,14b-Octamethyl-4a,5,6,6a,6b,7,8,9,10,11, 12,12a,14,14a, 14b,15,16,16a-octadecahydro-4H-piceno[3,4-d][1,3]dioxin-8a(4bH)-yl)-3-propylurea] | 2.68 (1.9;3.4) | 4.60 (4.2;4.9) | 4.12 (3.7;4.4) | 5.08 (4.7;5.4) | 4.96 (4.8;5) | 5.88 (5.6;6.1) | inactive against NEJs |
| COC(=O)[C@@H](NC(=O)N[C@]12CCC(C)(C)CC1C1=CCC3[C@@]4(C)CCC5OC(C)(C)OC[C@@]5(C)C4CC[C@@]3(C)[C@]1(C)CC2)C(C)C (stereo partly drawn) [MC027, Methyl (((4aR,6aR,6bS,8aS,14bR)-2,2,4a,6a,6b,11,11,14b-octamethyl-4a,5,6,6a,6b,7,8,9,10, 11,12,12a, 14,14a,14b,15,16,16a-octadecahydro-4H-piceno[3,4-d][1,3]dioxin-8a(4bH)-yl)-carbamoyl)-L-valinate] | 3.48 (2.9;3.9) | 3.32 (2.5;4.1) | 4.72 (4.4;4.9) | 4.64 (3.9;5.3) | 4.76 (4.4;5) | 5.48 (4.9;5.9) |  |
| CC1(C)CC[C@]2(NC(=O)N[C@H]3C(O)O[C@H](CO)[C@@H](O)[C@@H]3O)CC[C@]3(C)C(=CCC4[C@@]5(C)CCC6OC(C)(C)OC[C@@]6(C)C5CC[C@]43C)C2C1 (stereo partly drawn) [MC028, 1-((4aR,6aR,6bS,8aS,14bR)-2,2,4a,6a,6b,11,11,14b-Octamethyl-4a,5,6,6a,6b,7,8,9,10,11, 12,12a,14,14a, 14b,15,16,16a-octadecahydro-4H-piceno[3,4-d][1,3]dioxin-8a(4bH)-yl)-3-((3R,4R,5S,6R)-2,4,5-tri-hydroxy-6-(hydroxymethyl)tetrahydro-2H-pyran-3-yl)urea] | 2.32 (1.8;2.7) | 2.24 (1.6;2.8) | 3.52 (2.9;4) | 2.76 (2;3.4) | 2.60 (1.9;3.2) | 2.72 (2;3.4) | none reached the level required |
| CC1(C)CC[C@]2(NC(=O)N[C@H]3C(O)O[C@H](CO)[C@@H](O)[C@@H]3O)CC[C@]3(C)C(=CCC4[C@@]5(C)CC[C@H](O)[C@@](C)(CO)C5CC[C@]43C)C2C1 (stereo partly drawn) [MC030, 1-((4aS,6aS,6bR,9R,10S,12aR)-10-Hydroxy-9-(hydroxymethyl)-2,2,6a,6b,9,12a-hexa-methyl-1,3,4,5,6,6a,6b,7,8,8a,9,10,11,12,12a,12b,13,14b-octadecahydropicen-4a(2H)-yl)-3-((3R,4R,5S,6R)-2,4,5-tri-hydroxy-6-(hydroxymethyl)tetrahydro-2H-pyran-3-yl)urea] | 3.20 (2.6;3.7) | 3.00 (2.2;3.7) | 3.92 (3.5;4.2) | 3.60 (2.9;4.2) | 3.96 (3.4;4.4) | 4.00 (3.2;4.7) | none reached the level required; also recorded: low activity |
| CC(=O)OC[C@]12CCC(C)(C)CC1C1=CCC3[C@@]4(C)CCC5OC(C)(C)OC[C@@]5(C)C4CC[C@@]3(C)[C@]1(C)CC2 (stereo partly drawn) [MC031, ((4aR,6aR,6bS,8aS,14bR)-2,2,4a,6a,6b,11,11,14b-Octamethyl-4a,5,6,6a,6b,7,8,9,10,11,12,12a,14,14a, 14b,15,16,16a-octadecahydro-4H-piceno[3,4-d][1,3]dioxin-8a(4bH)-yl)methyl acetate] | 2.96 (2.4;3.4) | 2.72 (1.9;3.4) | 2.76 (2;3.4) | 3.64 (2.9;4.3) | 3.44 (2.6;4.2) | 4.80 (4.2;5.3) |  |
| CCCCCCCCCCCCCCCC(=O)OC[C@]12CCC(C)(C)CC1C1=CCC3[C@@]4(C)CCC5OC(C)(C)OC[C@@]5(C)C4CC[C@@]3(C)[C@]1(C)CC2 (stereo partly drawn) [MC032, ((4aR,6aR,6bS,8aS,14bR)-2,2,4a,6a,6b,11,11,14b-Octamethyl-4a,5,6,6a,6b,7,8,9,10,11,12,12a,14,14a, 14b,15,16,16a-octadecahydro-4H-piceno[3,4-d][1,3]dioxin-8a(4bH)-yl)methyl palmitate] | 3.20 (2.6;3.7) | 2.52 (1.7;3.3) | 3.12 (2.5;3.6) | 2.64 (1.8;3.4) | 3.12 (2.5;3.7) | 2.80 (2;3.5) |  |
| CC1(C)CC[C@]2(NC(=O)N3CCC[C@H]3C(=O)O)CC[C@]3(C)C(=CCC4[C@@]5(C)CCC6OC(C)(C)OC[C@@]6(C)C5CC[C@]43C)C2C1 (stereo partly drawn) [MC033, (((4aR,6aR,6bS,8aS,14bR)-2,2,4a,6a,6b,11,11,14b-Octamethyl-4a,5,6,6a,6b,7,8,9,10,11,12,12a,14,14a, 14b,15,16,16a-octadecahydro-4H-piceno[3,4-d][1,3]dioxin-8a(4bH)-yl)carbam-oyl)-L-proline] | 3.80 (3.4;4.1) | 3.28 (2.7;3.8) | 3.88 (3.5;4.2) | 3.44 (2.8;4) | 3.76 (3.2;4.2) | 4.04 (3.3;4.6) |  |
| CCCCCCCCCCCCCCCC(=O)OC[C@]12CCC(C)(C)CC1C1=CCC3[C@@]4(C)CC[C@H](O)[C@@](C)(CO)C4CC[C@@]3(C)[C@]1(C)CC2 (stereo partly drawn) [MC038, ((4aS,6aS,6bR,9R,10S,12aR)-10-Hydroxy-9-(hydroxymethyl)-2,2,6a,6b,9,12a-hexamethyl-1,3,4,5,6,6a, 6b,7,8,8a,9,10,11,12,12a,12b,13,14b-octadecahydropicen-4a(2H)-yl)methyl palmitate] | 2.96 (2.3;3.5) | 2.32 (1.7;2.9) | 2.80 (2.2;3.3) | 2.92 (2.1;3.6) | 3.32 (2.7;3.8) | 3.48 (2.7;4.2) |  |

— paper PMC10385850, “Modified Hederagenin Derivatives Demonstrate Ex Vivo Anthelmintic Activity against Fasciola hepatica” (Pharmaceutics, 2023)
